Assay results published in patent publication US20220202801A1, “USE OF COMPOUND IN PREPARATION OF DRUG FOR TREATING ATHEROSCLEROSIS” (GenEros Biopharma Ltd., priority 2019, published 2022).
Entries after “also recorded” stand apart in the source; their conditions may differ.

Columns and labels:
ApoE knockout mice = assay: Four blood lipids in serum of ApoE knockout mice (Example 1); type: in vivo; conditions: serum
Description: (§1) Methods: SPF grade C57BL/6 ApoE −/−model mice were provided by Guangdong Medical Experimental Animal Center, laboratory animal production license No. SOCK (Guangdong) 2013-0002. Laboratory animal quality certificate number: 44007200048196). Mice were half male and half female, aged 8 to 12 weeks, and 72 animals in total. After four weeks of housing in a SPF-level animal facility, animals with less body weights were disposed. A total of 64 animals were randomly divided into 8 groups, 8 in each group, fed with 10% high-fat food, and received with different treatments. Animals were observed and administered with the medicines by gavage once daily. The body weights were measured once a week and continued for 58 days. […] The test sample was dissolved in dimethyl sulfoxide solution and prepared with 30% PEG300.
At the end of the experiment, animals were anesthetized with pentobarbital sodium. Blood was collected from the orbital venous plexus, and centrifuged at 3000 r/min at a low temperature for 10 min to separate the serum. The levels of total cholesterol TC, triglyceride TG, high-density lipoprotein HDL-C, and low-density lipoprotein LDL-C were measured, and the remaining serum was stored in a refrigerator at −80° C.
Statistical analysis: Data were expressed as the mean plus or minus the standard deviation (x± s), and analyzed by SPSS21.0 statistical software. […] The level of test is α=0.05.

ICAM-1 = assay: Immunohistochemistry of aortic wall, ICAM-1; type: in vivo, mice; conditions: for aorta (ICAM-1) signal expression in blood vessels: IHC-P×400, single animal micrograph; for ICAM-1 average optical density: aortic wall
Description: as §1
After blood collection, the animals were sacrificed, and the aortic arch together with the heart and thoracic aorta were fixed with neutral formaldehyde and subject to pathological examination. The abdominal aorta was collected and quick-frozen in liquid nitrogen, and stored at −80° C.
c) Immunohistochemistry: The thoracic aorta was sliced and detected by immunohistochemistry for the expression of CD68, intercellular adhesion molecule-1 (ICAM-1), and vascular cell adhesion Molecule-1 (VCAM-1).

[1] = half male and female, 5 mg/kg body weight
[2] = ♂, 5 mg/kg gavage QD, 58 days, 5 mg/kg
[3] = ♂, 5 mg/kg gavage QD, 58 days, listed as sample B, 5 mg/kg

O=C(N/N=C/c1coc2ccccc2c1=O)c1cccnc1 [Sample B]
LDL-C (ApoE knockout mice; [1]): 5.96 ± 2.17 mmol/L | TC (ApoE knockout mice; [1]): 19.76 ± 5.49 mmol/L | TG (ApoE knockout mice; half male and female, 5 mg/kg body weight, 5 mg/kg): 0.74 ± 0.35 mmol/L | TG (ApoE knockout mice; half male and female, 5 mg/kg body weight, listed as sample B, 5 mg/kg): lower; also recorded: decreased | LDL-C (ApoE knockout mice; ♀, 1 mg/kg gavage QD, 58 days): 4.32 ± 0.59 mmol/L | TC (ApoE knockout mice; ♀, 1 mg/kg gavage QD, 58 days): 15.50 ± 2.01 mmol/L | TG (ApoE knockout mice; ♀, 1 mg/kg gavage QD, 58 days): 0.57 ± 0.08 mmol/L | HDL-C (ApoE knockout mice; ♀, 1 mg/kg gavage QD, 58 days, 1 mg/kg): 1.32 ± 0.18 mmol/L | HDL-C (ApoE knockout mice; ♀, 1 mg/kg gavage QD, 58 days, listed as sample B, 1 mg/kg): lower | LDL-C (ApoE knockout mice; ♀, 2 mg/kg gavage QD, 58 days): 4.40 ± 0.96 mmol/L | TC (ApoE knockout mice; ♀, 2 mg/kg gavage QD, 58 days): 15.49 ± 2.98 mmol/L | TG (ApoE knockout mice; ♀, 2 mg/kg gavage QD, 58 days): 0.58 ± 0.10 mmol/L | HDL-C (ApoE knockout mice; ♀, 2 mg/kg gavage QD, 58 days, 2 mg/kg): 1.36 ± 0.16 mmol/L | HDL-C (ApoE knockout mice; ♀, 2 mg/kg gavage QD, 58 days, listed as sample B, 2 mg/kg): lower | LDL-C (ApoE knockout mice; ♀, 5 mg/kg gavage QD, 58 days): 4.61 ± 0.56 mmol/L | TC (ApoE knockout mice; ♀, 5 mg/kg gavage QD, 58 days): 16.21 ± 1.98 mmol/L | TG (ApoE knockout mice; ♀, 5 mg/kg gavage QD, 58 days): 0.65 ± 0.24 mmol/L | HDL-C (ApoE knockout mice; ♀, 5 mg/kg gavage QD, 58 days, 5 mg/kg): 1.38 ± 0.08 mmol/L | HDL-C (ApoE knockout mice; ♀, 5 mg/kg gavage QD, 58 days, listed as sample B, 5 mg/kg): lower | HDL-C (ApoE knockout mice; ♂, 1 mg/kg gavage QD, 58 days): 2.18 ± 0.75 mmol/L | LDL-C (ApoE knockout mice; ♂, 1 mg/kg gavage QD, 58 days): 8.07 ± 2.56 mmol/L | TC (ApoE knockout mice; ♂, 1 mg/kg gavage QD, 58 days): 23.63 ± 5.16 mmol/L | TG (ApoE knockout mice; ♂, 1 mg/kg gavage QD, 58 days): 1.26 ± 0.89 mmol/L | LDL-C (ApoE knockout mice; ♂, 2 mg/kg gavage QD, 58 days): 7.03 ± 1.41 mmol/L | TC (ApoE knockout mice; ♂, 2 mg/kg gavage QD, 58 days): 22.54 ± 2.88 mmol/L | TG (ApoE knockout mice; ♂, 2 mg/kg gavage QD, 58 days): 1.05 ± 0.25 mmol/L | HDL-C (ApoE knockout mice; ♂, 2 mg/kg gavage QD, 58 days, 2 mg/kg): 2.00 ± 0.23 mmol/L | HDL-C (ApoE knockout mice; ♂, 2 mg/kg gavage QD, 58 days, listed as sample B, 2 mg/kg): lower | LDL-C (ApoE knockout mice; ♂, 5 mg/kg gavage QD, 58 days): 7.31 ± 2.41 mmol/L | TC (ApoE knockout mice; ♂, 5 mg/kg gavage QD, 58 days): 23.32 ± 5.72 mmol/L | HDL-C (ApoE knockout mice; [2]): 2.04 ± 0.42 mmol/L | TG (ApoE knockout mice; [2]): 0.83 ± 0.46 mmol/L | HDL-C (ApoE knockout mice; [3]): lower | TG (ApoE knockout mice; [3]): lower | aorta (ICAM-1) signal expression in blood vessels (ICAM-1; 1 mg/kg): low to medium | aorta (ICAM-1) signal expression in blood vessels (ICAM-1; 2 mg/kg): low to medium | aorta (ICAM-1) signal expression in blood vessels (ICAM-1; 5 mg/kg): low to medium | ICAM-1 average optical density (ICAM-1; 1 mg/kg gavage QD): 2.44 ± 1.19 ×10^−2 | ICAM-1 average optical density (ICAM-1; 2 mg/kg gavage QD, 2 mg/kg): 1.31 ± 1.40 ×10^−2 | ICAM-1 average optical density (ICAM-1; 2 mg/kg gavage QD, listed as Nib2, 2 mg/kg): reduced expression | ICAM-1 average optical density (ICAM-1; 2 mg/kg gavage QD, listed as sample B, 2 mg/kg): lower than the model control group | ICAM-1 average optical density (ICAM-1; 5 mg/kg gavage QD): 3.98 ± 1.64 ×10^−2
